# From ChEMBL document CHEMBL1255490, “In vitro activities of DC-159a, a novel fluoroquinolone, against Mycobacterium species” (Antimicrob Agents Chemother, 2010)
# How the values were obtained:
# [1] = tested on: Mycobacterium tuberculosis; assay: Antimycobacterial activity against drug-susceptible Mycobacterium tuberculosis after 21 days by agar dilution method; format: functional; conditions: 504 h
# Mycobacterium kansasii = assay: Antimycobacterial activity against Mycobacterium kansasii after 7 days by agar dilution method; format: functional; conditions: 168 h
# [2] = tested on: Mycolicibacterium fortuitum; assay: Antimycobacterial activity against Mycobacterium fortuitum after 3 days by agar dilution method; format: functional; conditions: 72 h
# Mycobacterium avium [3] = assay: Antimycobacterial activity against Mycobacterium avium serovar 4 after 14 days by agar dilution method; format: functional; conditions: serovar 4, 336 h
# Mycobacterium avium [4] = assay: Antimycobacterial activity against Mycobacterium avium serovar 8 after 14 days by agar dilution method; format: functional; conditions: serovar 8, 336 h
# [5] = tested on: Mycobacterium intracellulare; assay: Antimycobacterial activity against Mycobacterium intracellular serovar 16 after 21 days by agar dilution method; format: functional; conditions: serovar 16, 504 h
# Mycobacteroides chelonae = assay: Antimycobacterial activity against Mycobacterium chelonae after 3 days by agar dilution method; format: functional; conditions: 72 h
# [6] = tested on: Mycobacteroides abscessus; assay: Antimycobacterial activity against Mycobacterium abscessus after 3 days by agar dilution method; format: functional; conditions: 72 h
# [7] = Cmax in monkey at 5 mg/kg, po; format: ADME, organism-based, Macaca mulatta; set-up: dose 5 mg/kg, route oral; conditions: rhesus monkey, in vivo
# [8] = AUC (0 to 24 hrs) in monkey at 5 mg/kg, po; format: ADME, organism-based, Macaca mulatta; set-up: time < 24 hr, dose 5 mg/kg, route oral; conditions: rhesus monkey, plasma
Structure (SMILES),MIC50 [1],MIC90 [1],MIC50 (Mycobacterium kansasii),MIC90 (Mycobacterium kansasii),MIC50 [2],MIC90 [2],MIC50 (Mycobacterium avium [3]),MIC90 (Mycobacterium avium [3]),MIC50 (Mycobacterium avium [4]),MIC90 (Mycobacterium avium [4]),MIC50 [5],MIC90 [5],MIC (Mycobacteroides chelonae),MIC50 (Mycobacteroides chelonae),MIC90 (Mycobacteroides chelonae),MIC50 [6],MIC90 [6],other results
COc1c(N2CC3(CC3)[C@](C)(N)C2)c(F)cc2c(=O)c(C(=O)O)cn([C@@H]3C[C@@H]3F)c12,0.06 µg/mL,0.06 µg/mL,0.06 µg/mL,0.125 µg/mL,0.125 µg/mL,0.25 µg/mL,1 µg/mL,2 µg/mL,1 µg/mL,2 µg/mL,1 µg/mL,4 µg/mL,4 µg/mL,4 µg/mL,8 µg/mL,8 µg/mL,16 µg/mL,Cmax [7]: 2200 ng/mL; AUC(0-t) at 24 h [8]: 16900 ng·h/mL
COc1c(N2CCNC(C)C2)c(F)cc2c(=O)c(C(=O)O)cn(C3CC3)c12 (configuration not stated) [GATIFLOXACIN],0.125 µg/mL,0.25 µg/mL,0.125 µg/mL,0.5 µg/mL,0.125 µg/mL,0.25 µg/mL,2 µg/mL,8 µg/mL,2 µg/mL,8 µg/mL,4 µg/mL,16 µg/mL,–,16 µg/mL,32 µg/mL,32 µg/mL,64 µg/mL,–
C[C@H]1COc2c(N3CCN(C)CC3)c(F)cc3c(=O)c(C(=O)O)cn1c23.C[C@H]1COc2c(N3CCN(C)CC3)c(F)cc3c(=O)c(C(=O)O)cn1c23.O [LEVOFLOXACIN],0.5 µg/mL,0.5 µg/mL,0.25 µg/mL,1 µg/mL,0.25 µg/mL,0.5 µg/mL,8 µg/mL,32 µg/mL,8 µg/mL,32 µg/mL,8 µg/mL,32 µg/mL,–,32 µg/mL,64 µg/mL,64 µg/mL,128 µg/mL,MIC (Mycobacterium kansasii): 0.25 µg/mL
COc1c(N2C[C@@H]3CCCN[C@@H]3C2)c(F)cc2c(=O)c(C(=O)O)cn(C3CC3)c12 [MOXIFLOXACIN],0.25 µg/mL,0.25 µg/mL,0.125 µg/mL,0.25 µg/mL,0.125 µg/mL,0.25 µg/mL,–,–,–,–,2 µg/mL,8 µg/mL,–,32 µg/mL,32 µg/mL,64 µg/mL,128 µg/mL,–
CO[C@H]1/C=C/O[C@@]2(C)Oc3c(C)c(O)c4c(O)c(c(/C=N/N5CCN(C)CC5)c(O)c4c3C2=O)NC(=O)/C(C)=C\C=C\[C@H](C)[C@H](O)[C@@H](C)[C@@H](O)[C@@H](C)[C@H](OC(C)=O)[C@@H]1C [RIFAMPIN],0.06 µg/mL,0.125 µg/mL,0.25 µg/mL,0.25 µg/mL,32 µg/mL,64 µg/mL,32 µg/mL,128 µg/mL,32 µg/mL,128 µg/mL,2 µg/mL,32 µg/mL,> 128 µg/mL,> 128 µg/mL,> 128 µg/mL,> 128 µg/mL,> 128 µg/mL,MIC [6]: > 128 µg/mL
